From US20260209299A1, “TROP2 IMMUNOGENIC PEPTIDE” (ASTON SCIENCE INC., priority 2023, published 2026)

Columns and labels:
[1] = system: Type 1 helper T cells (CD4^+IFN-γ^+); assay: FACS analysis of Type 1 helper T cells (CD4+IFN-γ+) after peptide treatment of PBMCs; assay type: cell-based, human; settings: for Combined Score: (A value×0.8)+(B value×0.2); for IFN-gamma − IL-10: A value: difference between distribution of IFN-γ secreting T cells and distribution of IL-10 secretion; for IFN-gamma − Treg: B value: difference between distribution of IFN-γ secreting T cells and Treg distribution; for IFN-gamma (Th1, CD4+): FACS, healthy human PBMCs, peptide 10 μg/ml with 1 μg/ml anti-CD3, 72 hours, then PMA/ionomycin + GolgiPlug 6 hours; for stimulation of Type 1 helper T cells (CD4+IFN-γ+), flow cytometry plot: FIG. 1, peptide together with PMA, ionomycin; for effect of stimulating Type 1 helper T cells while not stimulating Type 2 helper T cells and regulatory T cells: overall FACS conclusion, Table 2
Method: (§1) To this end, the degree of stimulation of Type 1 helper T cells (CD4^+IFN-γ^+), stimulation of interleukin 10 (IL-10)-producing regulatory T cells (CD4^+IL-10+), stimulation of regulatory T cells (CD4^+CD25^+Foxp3^+), and stimulation of Type 2 helper T cells secreting IL-4 and Th17 cells secreting IL-17 according to the treatment with the immunogenic peptide were confirmed.
(§2) Healthy human peripheral blood mononuclear cells (PBMCs; 2,000,000 cells per well) were cultured in 96× round bottom well plates in the presence or absence of anti-CD3 (clone HIT) and peptide at the indicated ratios.
(§3) Specifically, the peptide synthesized in Example 1 at a concentration of 10 μg/ml was cultured with 1 μg/ml of anti-CD3 in a 37° C. incubator for 72 hours. The culture medium consisted of complete RPMI1640 medium supplemented with 10% fetal bovine serum, 10 mM HEPES, 50 µM B-ME, and penicillin/streptomycin/L-glutamine. After 72 hours of culture, the cells were stimulated with Phorbol 12-myristate 13-acetate (50 ng/ml) and Ionomycine (1 μg/mL), which are intracellular cytokine secretion stimulators. To prevent cytokine secretion into the culture medium, the cells were co-stimulated with GolgiPlug, a protein transport inhibitor, at a concentration of 1/100 diluted in PBS for 6 hours in a 37° C. incubator. After stimulation, the cells were washed twice with PBS.
(§4) To determine only the viable cells among the PBMC cells, the cells were labeled with eFlor780-conjugated Fixable Viability dye diluted 1:100 in PBS for 15 minutes at 4° C., and washed twice with stain buffer after 15 minutes. After washing, the cells were surface-labeled with BV421-conjugated anti-CD4 (clone RPA-T4) and PE-Cy5-conjugated anti-CD25 (clone 2A3) antibodies diluted 1:100 in stain buffer for 30 minutes at 4° C. Then, the cells labeled with cell surface proteins were washed twice with stain buffer. Next, to detect cytokines secreted intracellularly, the cells were fixed for 1 hour at room temperature with fixation buffer and then washed with permeabilization buffer. To enable antibodies to detect intracellular cytokines, the fixed cells were labeled overnight at 4° C. with PerCP-Cy5. 5-conjugated anti-IFN-g (clone 4S. B3), Brilliant Violet 510-conjugated anti-IL-4 (clone MP4-25D2), anti-Foxp3 (clone PCH101), and PE-conjugated anti-IL-10 diluted 1:100 in permeabilization (clone JES3-19F1) buffer. Then, the cytokine-labeled cells were washed twice with stain buffer, and cell flow assays were performed using an Attune NxT Acoustic Focusing Cytometer (Invitrogen). Data analysis was performed using Flowjo v10.7.1 software (FlowJo).
1) Calculate the difference between the distribution of IFN-γ secreting T cells and the distribution of IL-10 secretion (A value),
2) Calculate the difference between the distribution of IFN-γ secreting T cells and the Treg distribution (B value),
3) Use the formula “(A value×0.8)+(B value×0.2)” as the final combined scoring, and
(§5) The activity results of the immunogenic peptide candidate group were confirmed by first isolating CD4^+ T cells (helper T cells) from PBMCs, and then classifying the isolated cells into Type 1 helper T cells (CD4^+IFN-γ^+), Type 2 helper T cells (CD4^+IL-4^+), regulatory T cells (CD4^+CD25^+Foxp3^+), and interleukin-10 (IL-10)-producing regulatory T cells (CD4^+IL-10^+) and analyzing the results.

[2] = system: interleukin 10 (IL-10)-producing regulatory T cells (CD4^+IL-10^+); assay: FACS analysis of IL-10-producing regulatory T cells (CD4+IL-10+) after peptide treatment of PBMCs; assay type: cell-based; settings: healthy human PBMCs, peptide 10 μg/ml with 1 μg/ml anti-CD3, 72 hours, then PMA/ionomycin + GolgiPlug 6 hours
Method: as §2, §3, §4

[3] = system: regulatory T cells (CD4^+CD25^+Foxp3^+); assay: FACS analysis of regulatory T cells (CD4+CD25+Foxp3+) after peptide treatment of PBMCs; assay type: cell-based; settings: healthy human PBMCs, peptide 10 μg/ml with 1 μg/ml anti-CD3, 72 hours, then PMA/ionomycin + GolgiPlug 6 hours
Method: as §1, §2, §3, §4, §5

[4] = system: Type 2 helper T cells (CD4^+IL-4^+); assay: FACS analysis of Type 2 helper T cells (CD4+IL-4+) after peptide treatment of PBMCs; assay type: cell-based, human; settings: FIG. 2; peptide together with PMA, ionomycin
Method: as §1, §2, §3
as §4, with “(FlowJo). […]” for “(FlowJo).”

[5] = system: interferon-gamma (IFN-γ)-forming T cells; assay: ELISpot assay of IFN-γ-forming T cells using PBMC; assay type: cell-based; settings: FIG. 5; human PBMCs, peptide 10 μg/mL, 70-72 hours
Method: The frequency of interferon-gamma (IFN-γ, 3420-4HPW-10, MabTech, Stockholm, Sweden) and interleukin-10 (IL-10, 3430-4HPW-10, MabTech)-forming T cells was assessed using the ELISpot assay.
Specifically, the pre-coated plates were washed four times with 200 μL/well of PBS. Human PBMCs (PCS-800-011, ATCC, Virginia, USA) 2×10^6/mL were dispensed onto the coated plate, and TROP2 peptides were dispensed at 10 μg/mL each and reacted with the PBMCs. The plate reacted under a total volume of 200 μL/well was incubated at 5% CO2, 37° C. for 70-72 hours. Then, the plate was washed 5 times with 200 μL of PBS, and 200 μL of diluted detection antibody (IFN-γ:7-B6-1-biotin; IL-10:12G8-biotin) was added to the wells of the plate, and then reacted at room temperature for 2 hours. After the reaction, the plate was washed 5 times with 200 μL of PBS, and 1:1000 diluted streptavidin-HRP was added at 100 μL/well, followed by reaction at room temperature for 1 hour. Then, the resulting product was washed 5 times with 200 μL of PBS, 100 μL/well of TMB substrate solution was added and reacted at RT for up to 5-10 minutes, and then the spots were counted using the AID iSpot reader system (AID, Strassberg, Germany).

MDA-MB-231 cell line [6] = assay: Antitumor effect of cancer vaccine alone in Xenograft cancer mouse model; assay type: in vivo, athymic Balb/C nude mice; settings: peptide + CFA/IFA + mGM-CSF, 100 μg per mouse subcutaneously on days 1, 8, 15, 22; vs control group G1
Method: (§6) Five-week-old athymic Balb/C nude mice weighing 16 to 18 g were purchased and acclimated for at least 3 to 7 days.
(§7) The MDA-MB-231 cell line, a human-derived triple-negative breast cancer cell line, was suspended at 5×10^6 cells per individual in 200 μl of a 1:1 mixture of PBS and Matrigel and injected subcutaneously into the axillary region between the right scapular area and the thoracic wall of the mouse.
On Day 16 after MDA-MB-231 cell transplantation, 32 mice (mean tumor size 143.8±2.9 mm^3) with tumor sizes reaching approximately 150 mm^3 were selected and assigned to each group of 8 mice.
Each group was divided into Group 1 (G1): PBS+CFA/IFA, Group 2 (G2): SEQ ID NO: 3 peptide+CFA/IFA+mGM-CSF, Group 3 (G3): SEQ ID NO: 10 peptide+CFA/IFA+mGM-CSF, and Group 4 (G4): SEQ ID NO: 17 peptide+CFA/IFA+mGM-CSF.
(§8) Next, the immunogenic peptide (TROP2 peptide) according to the present invention was administered subcutaneously at a dose of 100 μg per mouse on days 1, 8, 15, and 22 (the 16th day after cell transplantation was designated as Day 0, and the following day was designated as Day 1) for a total of 4 times, and the tumor size for each individual was calculated 11 times (0, 1, 4, 7, 11, 14, 18, 21, 25, 28, and 32) from Day 0 to Day 32. Then, the tumor growth change rate was calculated by comparison with the control group of each Test Group.

MDA-MB-231 cell line [7] = assay: Antitumor effect of cancer vaccine and antibody-drug conjugate (ADC) in Xenograft cancer mouse model; assay type: in vivo, athymic Balb/C nude mice; settings: peptide mix + CFA/IFA + mGM-CSF subcutaneously days 1, 8, 15, 22; Trodelvy 0.81 mg/kg intravenously Days 4 and 11
Method: as §6, §7, §8
In order to confirm the antitumor effect of the combination therapy of the immunogenic peptide discovered in the present invention and antibody-drug conjugate (ADC), the antitumor effect was analyzed for the following groups using the same experimental method as in Example 4. […]

Substance | Combined Score [1] | IFN-gamma − IL-10 [1] | IFN-gamma − Treg [1] | IFN-gamma (Th1, CD4+) [1] | IL-10 (Th2, CD4+) [2] | Treg (CD25+/Foxp3) [3] | stimulation of Type 1 helper T cells (CD4+IFN-γ+), flow cytometry plot [1] | effect of stimulating Type 1 helper T cells while not stimulating Type 2 helper T cells and regulatory T cells [1] | stimulation of Type 2 helper T cells (CD4+IL-4+), flow cytometry plot [4] | number of cells secreting IFN-γ (ELISpot spots) [5] | TGI rate (%) at Day 32 (MDA-MB-231 cell line [6]) | TGI rate (%) at Day 32 (MDA-MB-231 cell line [7])
AGLIAVIVVVVVALVAGMAVLVITNRRKSGKYKK [SEQ ID NO: 24] | 11.88 | 12.35% | 10.00% | 17.10% | 4.75% | 7.10% |  |  |  |  |  | 
ELRONTSQKAAGDVD (ELRQNTSQKAAGDVD) [SEQ ID NO: 17] | 20.02 | 21.27% | 15.03% | 23.20% | 1.93% | 8.17% | stimulated Type 1 helper T cells (CD4^+IFN-γ^+) to a high degree | most excellent | hardly stimulated Type 2 helper T cells (CD4^+IL-4^+) | dramatically increased the secretion of IFN-γ | 57.2% | 
EPLQVERTLIYYLDE [SEQ ID NO: 19] |  |  |  |  |  |  |  |  |  | dramatically increased the secretion of IFN-γ |  | 
LVRPSEHALVDNDGL [SEQ ID NO: 10] | 17.84 | 18.97% | 13.34% | 21.00% | 2.03% | 7.66% | stimulated Type 1 helper T cells (CD4^+IFN-γ^+) to a high degree | most excellent | hardly stimulated Type 2 helper T cells (CD4^+IL-4^+) | dramatically increased the secretion of IFN-γ | 38.5% | 
PKFSMKRLTAGLIAVIV [SEQ ID NO: 22] | 11.25 | 11.75% | 9.25% | 16.90% |  | 7.65% |  |  |  |  |  | 
PLRLPLLLLVLAAVTGHTAAQD [SEQ ID NO: 3] | 20.36 | 21.66% | 15.16% | 24.00% | 2.34% | 8.84% | stimulated Type 1 helper T cells (CD4^+IFN-γ^+) to a high degree | most excellent | hardly stimulated Type 2 helper T cells (CD4^+IL-4^+) | dramatically increased the secretion of IFN-γ | 52.4% | 
RERYRLHPKFVAAVH [SEQ ID NO: 15] | 12.27 | 12.87% | 9.87% | 17.80% | 4.93% | 7.93% |  |  |  |  |  | 
RGEPLQVERTLIYYL [SEQ ID NO: 18] | 19.62 | 20.80% | 14.89% | 22.90% | 2.10% | 8.01% | stimulated Type 1 helper T cells (CD4^+IFN-γ^+) to a high degree | most excellent | hardly stimulated Type 2 helper T cells (CD4^+IL-4^+) |  |  | 
SKCLLLKARMSAPKN [SEQ ID NO: 8] | 11.06 | 11.65% | 8.68% | 16.90% | 5.25% | 8.22% |  |  |  |  |  | 
SLRCDELVRTHHILIDLRHRPTAGAFN [SEQ ID NO: 11] | 11.16 | 11.71% | 8.97% | 17.20% | 5.49% | 8.23% |  |  |  |  |  | 
TLIYYLDEIPPKFSM [SEQ ID NO: 20] | 10.26 | 10.82% | 8.03% | 16.10% | 5.28% | 8.07% |  |  |  |  |  | 
sacituzumab govitecan [Trodelvy] |  |  |  |  |  |  |  |  |  |  |  | 46.1%
